Patent US20070190628A1, “Yeast food composition for fuel ethanol production” (priority 2006, published 2007)

Columns and labels:
active dry yeast “z” [1] = experiment: Scaled batch fermentation (4 L) of normal gravity corn mash: fermentation time and ethanol production; format: cell-based, Saccharomyces cerevisiae; details: 4 L batch
Description: The fermentation rate in each nutrient-amended corn mash was determined by following the disappearance of dissolved solids by analysis of each sample collected for determination of yeast biomass production, with a digital density meter analyzer (model DMA-45, Anton Paar KG, Graz, Austria) maintained at 20° C. The amounts of ethanol produced during fermentation of each nutrient-amended corn mash were determined by measuring the amount of NADH+H^+ produced after ethanol was converted to acetaldehyde by alcohol dehydrogenase (ADH; Sigma Chemical Co.). An aliquot of each sample was collected for determination of yeast biomass production and diluted to 1:500. […] The absorbance of each tube was then measured at 340 nm after 15 min of incubation using water as the blank. To determine the amount of ethanol produced, a standard curve (ethanol concentration versus absorbance) was prepared using a standard 10% (w/v) ethanol preparation diluted to 1:500 and then diluted further to produce range of ethanol concentrations from 0 to 20 μg in the assay above. The linear equation (y=mx+b) obtained from the plot was used to calculate the amount of ethanol in the test solutions, where y was the absorbance and x was the amount (μg) of ethanol. […] Fermentation rates and ethanol production were determined by repeated sampling and sample processing at specific time intervals as described in Example 1.

active dry yeast “z” [2] = experiment: Fermentation of normal gravity corn mash with nutrient supplements (Example 4); format: cell-based, Saccharomyces cerevisiae
Description: The effects of the optimized defined urea plus salts-based nutrient supplement, i.e., defined yeast food, developed in Example 3 for corn mash fermentations, were assessed by comparisons of fermentation rates and ethanol production in normal gravity corn mashes and very high gravity corn mashes that were (a) supplemented with 16 mM urea only, or (b) yeast extract, or (c) supplemented with 16 mM urea plus the defined yeast food from Example 3 which in this set of studies, contained 1.6 g/L (NH4)2HPO4, 0.32 g/L (NH4)2SO4, 0.049 g/L MgSO4.7H2O, and 0.273 mg/L ZnSO4.7H2O.
Normal density corn mashes were prepared as described in Example 1 and were determined to contain about 18-20 g dissolved solids per 100 mL mash as determined by density meter analysis. […] The mash thus prepared contained 30-32 g of dissolved solids/100 mL as determined by density meter analysis. […]
Each study was commenced by removing fermentors containing either normal gravity corn mash or very high gravity corn mash from 4° C. storage, connecting them to 30° C. water bath circulators and continually mixing the corn mash contents therein until the temperature of each mash was 30° C. […] Fermentation performance in all treatments was assessed by repeated sampling and analyses of the mashes during the fermentation periods as described in Example 1.

NC(N)=O [urea]
maximum ethanol production (active dry yeast “z” [1]): 11 % v/v | time within which fermentation was completed (active dry yeast “z” [1]): ≤ 48 h | fermentation period required to complete fermentation (disappearance of dissolved solids) (active dry yeast “z” [2]): 48 h
